Where “and” joins values, the source holds several entries; their conditions need not be identical. Equal entries are not always repeated. Inconclusive results and toxic doses are left out.

The subject of the experiment is L1210 leukemia ip in BDF1 mice, survival T/C. The experiment can be described thus: NCI In Vivo Anticancer Drug Screen. Data for tumor model L1210 Leukemia (intraperitoneal) in B6D2F1 (BDF1) mice. The note with it: endpoint: mean survival time, higher = longer survival. A digest of the protocol:
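In this screen, tumor-bearing mice given compound are compared to those given vehicle, and their survival values are reported as a treated-to-control quotient.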

[1] abbreviates: dose: 100.0 mg/kg/injection, schedule: Q01DX009 (ip), vehicle: saline with Tween-80.
The mark [2] stands for this setting: dose: 100.0 mg/kg/injection, schedule: Q01DX009 (ip), vehicle: Klucel (hydroxypropylcellulose) (HPC).
[3] abbreviates: dose: 200.0 mg/kg/injection, schedule: Q01DX009 (ip), vehicle: Klucel (hydroxypropylcellulose) (HPC).
Where [4] appears, read: dose: 400.0 mg/kg/injection, schedule: Q01DX009 (ip), vehicle: Klucel (hydroxypropylcellulose) (HPC).
The mark [5] stands for this setting: dose: 100.0 mg/kg/injection, schedule: Q04DX002 (ip), vehicle: Klucel (hydroxypropylcellulose) (HPC).
The mark [6] stands for this setting: dose: 200.0 mg/kg/injection, schedule: Q04DX002 (ip), vehicle: Klucel (hydroxypropylcellulose) (HPC).
The mark [7] stands for this setting: dose: 400.0 mg/kg/injection, schedule: Q04DX002 (ip), vehicle: Klucel (hydroxypropylcellulose) (HPC).
Where [8] appears, read: dose: 100.0 mg/kg/injection, schedule: Q04DX003 (ip), vehicle: Klucel (hydroxypropylcellulose) (HPC).
Setting [9] is: dose: 200.0 mg/kg/injection, schedule: Q04DX003 (ip), vehicle: Klucel (hydroxypropylcellulose) (HPC).
Setting [10] is: dose: 400.0 mg/kg/injection, schedule: Q04DX003 (ip), vehicle: Klucel (hydroxypropylcellulose) (HPC).
[11] abbreviates: dose: 100.0 mg/kg/injection, schedule: Q01DX009 (ip), vehicle: saline.
[12] abbreviates: dose: 100.0 mg/kg/injection, schedule: Q04DX003 (ip), vehicle: saline.
Setting [13] is: dose: 200.0 mg/kg/injection, schedule: Q01DX009 (ip), vehicle: saline.
Setting [14] is: dose: 200.0 mg/kg/injection, schedule: Q04DX003 (ip), vehicle: saline.
Where [15] appears, read: dose: 400.0 mg/kg/injection, schedule: Q01DX009 (ip), vehicle: saline.
The mark [16] stands for this setting: dose: 400.0 mg/kg/injection, schedule: Q04DX003 (ip), vehicle: saline.

Turning to `Nc1nc(Cl)c2[nH]cnc2n1`, the T/C reads like this: (dose: 0.25 mg/kg/injection, schedule: Q01DX009 (ip), vehicle: saline with Tween-80) 110 % of control; (dose: 0.5 mg/kg/injection, schedule: Q01DX009 (ip), vehicle: saline with Tween-80) 112 % of control; (dose: 1.0 mg/kg/injection, schedule: Q01DX009 (ip), vehicle: saline with Tween-80) 117 % of control; (dose: 6.0 mg/kg/injection, schedule: Q01DX009 (ip), vehicle: saline with Tween-80) 150 % of control; (dose: 8.8 mg/kg/injection, schedule: Q04DX003 (ip), vehicle: saline with Tween-80) 112 % of control; (dose: 13.0 mg/kg/injection, schedule: Q01DX009 (ip), vehicle: Klucel (hydroxypropylcellulose) (HPC)) 99 % of control. Further, the T/C is, setting by setting: (dose: 20.0 mg/kg/injection, schedule: Q01DX009 (ip), vehicle: Klucel (hydroxypropylcellulose) (HPC)) 101 % of control; (dose: 30.0 mg/kg/injection, schedule: Q01DX009 (ip), vehicle: Klucel (hydroxypropylcellulose) (HPC)) 101 % of control; (dose: 30.0 mg/kg/injection, schedule: Q04DX003 (ip), vehicle: saline with Tween-80) 195 % of control; (dose: 37.5 mg/kg/injection, schedule: Q04DX009 (ip), vehicle: Klucel (hydroxypropylcellulose) (HPC)) 94 % of control; (dose: 44.0 mg/kg/injection, schedule: Q01DX009 (ip), vehicle: Klucel (hydroxypropylcellulose) (HPC)) 100 % of control; (dose: 50.0 mg/kg/injection, schedule: Q01DX009 (ip), vehicle: saline with Tween-80) 107 % of control. For the same compound, the T/C by setting is: (dose: 66.0 mg/kg/injection, schedule: Q01DX009 (ip), vehicle: Klucel (hydroxypropylcellulose) (HPC)) 104 % of control; (dose: 75.0 mg/kg/injection, schedule: Q04DX009 (ip), vehicle: Klucel (hydroxypropylcellulose) (HPC)) 104 % of control; under setting [1], 124 % of control; (dose: 150.0 mg/kg/injection, schedule: Q04DX009 (ip), vehicle: Klucel (hydroxypropylcellulose) (HPC)) 97 % of control.
As for `C[n+]1c(-c2ccc(Cl)cc2Cl)c2cc(N)ccc2c2ccccc21`, the T/C by setting is: (dose: 3.12 mg/kg/injection, schedule: Q01DX009 (ip), vehicle: water) 100 % of control; (dose: 6.25 mg/kg/injection, schedule: Q01DX009 (ip), vehicle: water) 91 % of control; (dose: 12.5 mg/kg/injection, schedule: Q01DX009 (ip), vehicle: water) 102 % of control and 105 % of control; (dose: 12.5 mg/kg/injection, schedule: Q04DX003 (ip), vehicle: water) 100 % of control; (dose: 25.0 mg/kg/injection, schedule: Q01DX009 (ip), vehicle: water) 120 % of control and 86 % of control; (dose: 25.0 mg/kg/injection, schedule: Q04DX003 (ip), vehicle: water) 90 % of control.
`CCOC(=O)C1=C(O)c2ccccc2C1c1ccccc1` (stereo unspecified): the T/C under setting [2] was 93 % of control, the T/C under setting [3] is 91 % of control and the T/C under setting [4] is 93 % of control.
In the case of `Cc1cccc(NC(=O)Nc2ccccc2Cl)n1`, the T/C is, setting by setting: under setting [5], 87 % of control; under setting [6], 87 % of control; under setting [7], 90 % of control.
Turning to `O=C(COc1ccc(Cl)cc1Cl)NO`, the T/C under setting [2] is 104 % of control; the T/C under setting [8] is 102 % of control; the T/C under setting [3] was 109 % of control; the T/C under setting [9] is 104 % of control; the T/C under setting [4] is 101 % of control; the T/C under setting [10] was 106 % of control.
Turning to `CCN(CC)CCCNC=O`, the T/C is 94 % of control under setting [11]; 111 % of control under setting [12]; 94 % of control under setting [13]; 102 % of control under setting [14]; 94 % of control under setting [15]; 108 % of control under setting [16].
Turning to `O=C(/C=C/c1ccccc1)Nc1cc(Cl)ccc1Cl`, the T/C reads like this: under setting [2], 110 % of control; under setting [8], 97 % of control; under setting [3], 114 % of control; under setting [9], 89 % of control; under setting [4], 96 % of control; under setting [10], 94 % of control.
For the compound `CC(C)(C)C1CCC(Br)C(Cl)C1` (stereo unspecified), the T/C is, setting by setting: under setting [11], 98 % of control; under setting [13], 105 % of control; under setting [15], 100 % of control.
Turning to `O=C(NCCCCCSC(=O)c1ccccc1)c1ccccc1`, the T/C reads like this: under setting [5], 90 % of control; under setting [6], 94 % of control; under setting [7], 90 % of control.
On to `CC1(C)NC(=O)NC(=O)C1Br` (stereo unspecified), for which the T/C (dose: 100.0 mg/kg/injection, schedule: Q01DX Z (ip), vehicle: methylcellulose (MC)) was 96 % of control.
As for `NCCCCC(NC(=O)OCc1ccccc1)C(=O)CCl` (stereo unspecified), the T/C is 109 % of control (dose: 10.0 mg/kg/injection, schedule: Q04DX002 (ip), vehicle: saline) and 95 % of control (dose: 20.0 mg/kg/injection, schedule: Q04DX002 (ip), vehicle: saline).
Turning to `Cc1ccc(S(=O)(=O)/N=S(/C)CC/S(C)=N/S(=O)(=O)c2ccc(C)cc2)cc1` (stereo unspecified), the T/C was 102 % of control under setting [2], 105 % of control under setting [3] and 100 % of control under setting [4].
For `CSC1=NCCS1`, the T/C reads like this: (dose: 25.0 mg/kg/injection, schedule: Q01DX009 (ip), vehicle: Klucel (hydroxypropylcellulose) (HPC)) 97 % of control; (dose: 50.0 mg/kg/injection, schedule: Q01DX009 (ip), vehicle: Klucel (hydroxypropylcellulose) (HPC)) 102 % of control; under setting [2], 105 % of control; (dose: 100.0 mg/kg/injection, schedule: Q01DX009 (ip), vehicle: carboxymethylcellulose (CMC)) 111 % of control; (dose: 200.0 mg/kg/injection, schedule: Q01DX009 (ip), vehicle: carboxymethylcellulose (CMC)) 101 % of control.
Consider `O=C(O)CNC(=O)/C(=C\c1[nH]c(=O)[nH]c(=O)c1Br)NC(=O)c1ccccc1`, for which the T/C under setting [1] is 92 % of control; the T/C (dose: 100.0 mg/kg/injection, schedule: Q04DX003 (ip), vehicle: saline with Tween-80) is 104 % of control; the T/C (dose: 200.0 mg/kg/injection, schedule: Q01DX009 (ip), vehicle: saline with Tween-80) is 91 % of control; the T/C (dose: 200.0 mg/kg/injection, schedule: Q04DX003 (ip), vehicle: saline with Tween-80) was 104 % of control; the T/C (dose: 400.0 mg/kg/injection, schedule: Q01DX009 (ip), vehicle: saline with Tween-80) was 96 % of control; the T/C (dose: 400.0 mg/kg/injection, schedule: Q04DX003 (ip), vehicle: saline with Tween-80) is 107 % of control.
In the case of `CCCCC1C(=O)N(c2ccccc2)N(c2ccccc2)C1=O`, the T/C was 97 % of control (dose: 17.0 mg/kg/injection, schedule: Q01DX Z (ip), vehicle: water); 100 % of control (dose: 40.0 mg/kg/injection, schedule: Q01DX Z (ip), vehicle: water); 103 % of control (dose: 60.0 mg/kg/injection, schedule: Q01DX Z (ip), vehicle: water); 100 % of control (dose: 90.0 mg/kg/injection, schedule: Q01DX Z (ip), vehicle: water); 114 % of control (dose: 135.0 mg/kg/injection, schedule: Q01DX Z (ip), vehicle: water).
For the compound `C=C1C[C@]23C[C@H](O)[C@]4(O)[C@@]5(C)C[C@H](O)C[C@]46C(C2[C@@H]1[C@@H](OC(=O)/C(C)=C/C)[C@@H](OC(=O)/C(C)=C/C)[C@H]36)N(C)C5` (stereo partly specified), the T/C by setting is: (dose: 50.0 mg/kg/injection, schedule: Q01DX001 (ip), vehicle: carboxymethylcellulose (CMC)) 95 % of control; (dose: 100.0 mg/kg/injection, schedule: Q01DX001 (ip), vehicle: carboxymethylcellulose (CMC)) 106 % of control; (dose: 200.0 mg/kg/injection, schedule: Q01DX001 (ip), vehicle: carboxymethylcellulose (CMC)) 106 % of control; (dose: 400.0 mg/kg/injection, schedule: Q01DX001 (ip), vehicle: carboxymethylcellulose (CMC)) 114 % of control.
For `C1CN(CSCN2CCOCC2)CCO1`, the T/C runs as follows: under setting [12], 106 % of control; under setting [14], 97 % of control; under setting [16], 97 % of control.

The record behind these values is PubChem BioAssay AID248 (DTP/NCI, 2004).
